Six compounds from patent publication US20250092065A1, “2-(INDAZOL-5-YL)-6-(PIPERIDIN-4-YL)-1,7-NAPHTHYRIDINE DERIVATIVES AND RELATED COMPOUNDS AS MODULATORS FOR SPLICING NUCLEIC ACIDS AND FOR THE TREATMENT OF PROLIFERATIVE DISEASES” (REMIX THERAPEUTICS INC., priority 2022, published 2025) can be followed below.

For one series, the system named is K562 cells. The series can be described thus: Cell Titer Glo 2.0 cell viability (toxicity) assay, K562. The conditions noted are these: 500 cells/well, 72 hours.
The subject of another series is SMN2 mRNA. Kind of series: RT-qPCR splicing assay, SMN2 mRNA. Type of series: cell-based, human. The conditions noted are these: Homo sapiens, canonical junction qPCR panel, Table 4; read-out: SMN2 IC50 (decrease in CJ mRNA levels). How it is done:
(§1) Compounds described herein were used to modulate RNA transcript abundance in cells. The expression of a target mRNA was measured by detecting the formation of an exon-exon junction in the canonical transcript (CJ). A compound mediated exon-inclusion event was detected by observing an increase in formation of a new junction with an alternative exon (AJ). Real-time qPCR assays were used to detect these splicing switches and interrogate the potency of various compounds towards different target genes. A high-throughput real time quantitative PCR (RT-qPCR) assay was developed to measure these two isoforms of the mRNA (CJ and AJ) for exemplary genes, such as HTT, SMN2, and MYB, together with a control housekeeping gene, GAPDH or GUSB or PPIA, used for normalization. Briefly, the A673 or K562 cell line was treated with various compounds described herein (e.g., compounds of Formula (I)). After treatment, the levels of the HTT, MYB, or SMN2 mRNA targets were determined from each sample of cell lysate by cDNA synthesis followed by qPCR.
(§2) The A673 cell line was cultured in DMEM with 10% FBS. Cells were diluted with full growth media and plated in a 96-well plate (15,000 cells in 100 ul media per well). The plate was incubated at 37° C. with 5% CO2 for 24 hours to allow cells to adhere. An 11-point 3-fold serial dilution of the compounds was made in DMSO then diluted in media in an intermediate plate. Compounds were transferred from the intermediate plate to the cell plate with the top dose at a final concentration of 10 uM in the well. Final DMSO concentration was kept at or below 0.25%. The cell plate was returned to the incubator at 37° C. with 5% CO2 for an additional 24 hours.
(§3) The K562 cell line was cultured in IMDM with 10% FBS. For K562, cells were diluted with full growth media and plated in either a 96-well plate (50,000 cells in 50 uL media per well) or a 384-well plate (8,000-40,000 cells in 45 uL media per well). An 11-point 3-fold serial dilution of the compounds were made in DMSO then diluted in media in an intermediate plate. Compound was transferred from the intermediate plate to the cell plate with the top dose at a final concentration of 10 uM in the well. Final DMSO concentration was kept at or below 0.25%. Final volume was 100 uL for 96-well plate and 50 uL for 384-well plate. The cell plate was then placed in an incubator at 37° C. with 5% CO2 for 24 hours.
(§4) The cells were then gently washed with 50 uL-100 uL cold PBS before proceeding to addition of lysis buffer. 30 uL-50 μL of room temperature lysis buffer with DNAse I (and optionally RNAsin) was added to each well. Cells were shaken/mixed thoroughly at room temperature for 5-10 minutes for lysis to take place and then 3 uL-5 μL of room temperature stop solution was added and wells were shaken/mixed again. After 2-5 minutes, the cell lysate plate was transferred to ice for RT-qPCR reaction setup. The lysates could also be frozen at −80° C. for later use.
(§5) In some cases, a direct lysis buffer was used. An appropriate volume of 3× lysis buffer (10 mM Tris, 150 mM NaCl, 1.5%-2.5% Igepal and 0.1-1 U/uL RNAsin, pH 7.4) was directly added to either K562 or A673 cells in media and mixed by pipetting 3 times. The plates were then incubated at room temperature with shaking/rocking for 20-50 minutes to allow for lysis to take place. After this time, the cell lysate plate was transferred to ice to set up for the RT-qPCR reactions. The lysates could also be frozen at −80° C. for later use.
(§6) To set up 10 uL RT-qPCR reactions, cell lysates were transferred to 384-well qPCR plates containing the master mix according to the table below. The plates were sealed, gently vortexed, and spun down before the run. The volumes were adjusted accordingly in some instances where the reaction was carried in 20 μL. The table below summarizes the components of the RT-qPCR reactions:
(§7) The RT-qPCR reaction was performed using a QuantStudio (ThermoFisher) under the following fast cycling conditions. […]

A further series relates to MYB mRNA. Kind of series: RT-qPCR splicing assay, MYB mRNA canonical (CJ) and alternative (AJ) junction. In kind it is cell-based, human. Conditions: Homo sapiens; for AC50: MYB alternative junction mRNA increase, read-out: MYB AJ (increase in alternative junction mRNA, AC50). How it is done: as §1, §2, §3, §4, §5, §6, §7
Another series has as its system HTT mRNA. Kind of series: RT-qPCR splicing assay, HTT mRNA canonical (CJ) and alternative (AJ) junction. Type of series: cell-based, human. The conditions noted are these: Homo sapiens; for AC50: HTT alternative junction mRNA increase, read-out: HTT AJ (increase in alternative junction mRNA, AC50). How it is done:
as §1, §2, §3, §4, §5, §6, §7

The mark [1] stands for this setting: RT-qPCR, MYB canonical junction mRNA decrease, read-out: MYB CJ (decrease in canonical junction mRNA, IC50).
Where [2] appears, read: canonical junction qPCR panel, Table 4, read-out: MYB IC50 (decrease in CJ mRNA levels).
Where [3] appears, read: RT-qPCR, HTT canonical junction mRNA decrease, read-out: HTT CJ (decrease in canonical junction mRNA, IC50).
The mark [4] stands for this setting: canonical junction qPCR panel, Table 4, read-out: HTT IC50 (decrease in CJ mRNA levels).

Read-outs that look alike come from different tables or passages of the source. Some results are limits rather than exact numbers.

On to `C[C@@H]1CN(c2ccc3nc(-c4cc(F)c5nc(CF)cn5c4)ncc3c2)C[C@H](C)N1` [Compound 835, 6-[(3R,5S)-3,5-dimethylpiperazin-1-yl]-2-[8-fluoro-2-(fluoromethyl)imidazo[1,2-a]pyridin-6-yl]quinazoline], for which the “Effect of Exemplary Compounds on Cell Viability, K562” value (“Effect of Exemplary Compounds” below) with K562 cells is “B (B represents 100-1000 nM)”. For the same compound, the IC50 was below 0.1 µM with SMN2 mRNA; 0.1 to 1 µM with MYB mRNA (setting [1]); 0.1 to 1 µM in the series with MYB mRNA (setting [2]); 1 to 10 µM in the series on HTT mRNA (setting [3]); 1 to 10 µM in the series with HTT mRNA (setting [4]). Also, the figures for the AC50 in the series with MYB mRNA (RT-qPCR) and with HTT mRNA (RT-qPCR) were 0.1 to 1 µM and 1 to 10 µM, respectively.
For the compound `CCc1cn2cc(-c3ncc4cc(N5C[C@@H](C)N[C@@H](C)C5)ccc4n3)cc(F)c2n1` [Compound 836], the “Effect of Exemplary Compounds” value in the series on K562 cells is on record as “C (C represents 1000-9999 nM)”. Moreover, the IC50 in the series with SMN2 mRNA is 0.1 to 1 µM; in the series on MYB mRNA (setting [1]) it was above 10 µM; with MYB mRNA (setting [2]) it was above 10 µM; with HTT mRNA (setting [3]) it was 1 to 10 µM; with HTT mRNA (setting [4]), 1 to 10 µM. In addition, the AC50 in the series with MYB mRNA (RT-qPCR) is 1 to 10 µM; in the series on HTT mRNA (RT-qPCR) it was above 10 µM.
Regarding `Cc1nc2c(F)cc(-c3ncc4cc(N5C[C@@H](C)N[C@@H](C)C5)ccc4n3)cn2c1F` [Compound 837, 2-{3,8-difluoro-2-methylimidazo[1,2-a]pyridin-6-yl}-6-[(3R,5S)-3,5-dimethylpiperazin-1-yl]quinazoline], the “Effect of Exemplary Compounds” value in the series with K562 cells was “C (C represents 1000-9999 nM)”. The IC50 fell in the range of 0.1 to 1 µM in the series with SMN2 mRNA; 1 to 10 µM in the series with MYB mRNA (setting [1]); 1 to 10 µM in the series on MYB mRNA (setting [2]); 0.1 to 1 µM with HTT mRNA (setting [3]); 0.1 to 1 µM in the series on HTT mRNA (setting [4]). The AC50 in the series on MYB mRNA (RT-qPCR) and with HTT mRNA (RT-qPCR) was 1 to 10 µM each time.
On to `COc1nc(-c2ncc3cc(N4C[C@@H](C)N[C@@H](C)C4)ccc3n2)cn2cc(C)nc12` [Compound 838], for which, in the series with K562 cells, the “Effect of Exemplary Compounds” value was “C (C represents 1000-9999 nM)”. The IC50 in the series with SMN2 mRNA was below 0.1 µM; in the series on MYB mRNA (setting [1]), 0.1 to 1 µM; in the series with MYB mRNA (setting [2]), 0.1 to 1 µM; in the series with HTT mRNA (setting [3]), above 10 µM; in the series on HTT mRNA (setting [4]), above 10 µM. The AC50 was 0.1 to 1 µM in the series on MYB mRNA (RT-qPCR) and above 10 µM in the series with HTT mRNA (RT-qPCR).
For `C[C@H]1CN(c2ccc3nc(-c4cc(F)c5nn(C)c(F)c5c4)ncc3c2)C[C@H](C)N1` [Compound 924], in the series with K562 cells, the “Effect of Exemplary Compounds” value is listed as “C (C represents 1000-9999 nM)”. Besides, the IC50 in the series on SMN2 mRNA is 0.1 to 1 µM; in the series with MYB mRNA (setting [1]), 1 to 10 µM; in the series with MYB mRNA (setting [2]) it was 1 to 10 µM; in the series on HTT mRNA (setting [3]), above 10 µM; with HTT mRNA (setting [4]), above 10 µM. For the same compound, the AC50 with MYB mRNA (RT-qPCR) and in the series on HTT mRNA (RT-qPCR) was 1 to 10 µM in each case.
For `C[C@@H]1CN(c2ccc3nc(-c4cc(F)c5nn(C)c(F)c5c4)ncc3c2)C[C@H](C)N1` [Compound 925], the “Effect of Exemplary Compounds” value with K562 cells is reported as “C (C represents 1000-9999 nM)”. Moreover, the IC50 in the series with SMN2 mRNA lay in the range of 0.1 to 1 µM; in the series on MYB mRNA (setting [1]), 1 to 10 µM; in the series with MYB mRNA (setting [2]), 1 to 10 µM; with HTT mRNA (setting [3]), 1 to 10 µM; with HTT mRNA (setting [4]) it was 1 to 10 µM. The AC50 in the series on MYB mRNA (RT-qPCR) is 1 to 10 µM; in the series with HTT mRNA (RT-qPCR), 0.1 to 1 µM.
